Earlier results, collected in US9554996B2, “Compositions and methods for delivery of poorly soluble drugs” (Nanotherapeutics, Inc., priority 2007, dated 2017).
Where a name gives a salt, the structure may show the parent alone.

Details: water

## COc1ccc2c3c1O[C@H]1C(=O)CC[C@@]4(O)[C@@H](C2)N(C)CC[C@]314 [oxycodone hydrochloride, oxycodone]
  solubility at neutral pH: 100 mg/ml
